Test results from patent EP2508186A1, “Phenoxazinones or phenothiazones as inhibitors of amyloid formation” (Max-Delbrück-Centrum für Molekulare Medizin, priority 2011, dated 2012).

Tests used:
[1] = target: T1, Aβ42 (Homo sapiens, UniProt P05067); experiment: Transmission electron microscopy (TEM/AFM) of Aβ42 aggregate species; assay type: biochemical
T1 construct: the amyloid-β 1-42 (Aβ42) peptide
Experimental: 2.1.1. Protein aggregation. For aggregation reactions, Aβ42 stock solution (1 mM in DMSO) was diluted in phosphate buffer (100 mM sodium phosphate, 10 mM NaCl, pH 7.4) to 15 µM and incubated in 1.5 ml Eppendorf tubes (Eppendorf, Germany) at 37°C. Generation of soluble Aβ42 oligomers was performed as described (Lambert, 1998). Aβ42 DMSO stock solutions were diluted in Ham's F12 medium without phenol red (Biosource) at a final peptide concentration of 100 µM, with or without test compounds. After brief vortexing, samples were incubated at 4-6°C for 24 h. Alternatively, Aβ42 oligomers were prepared as described in (Ma, 2006) by diluting DMSO stock solution to a final Aβ42 concentration of 110 µM in 10 mM HEPES buffer pH 7.4. Samples were incubated in a glass vial with a micro stir bar at 37°C for 24 h and subsequently centrifuged (Beckman Coulter Microfuge R, rotor F241.5P) at 13,000 rpm.
2.2.2. 04 promotes the assembly of seeding-competent, β-sheet-rich Aβ42 fibrils. To examine the morphology of 04-generated protein aggregates, time course experiments were carried out and evaluated by transmission electron microscopy (TEM). After an incubation period of 4 d, worm-like Aβ42 protofibrils (Walsh, 1999) with a length of ∼30-150 nm and a diameter of -5 nm were predominantly detected in untreated aggregation reactions (Fig. 2c). […] A similar result was obtained after an incubation period of 7 d (Fig. 2c). […] At the same time, the number of oligomeric structures was reduced in 04-treated aggregation reactions (p < 1*10^-4).
We then investigated whether 04 treatment influences the assembly of small Aβ42 oligomers, which are preferentially formed at low temperature in cell-free assays (Lambert, 1998). Aβ42 monomers were incubated for 24 h at 6-8°C in the presence and absence of 04 and formation of oligomers was analyzed by TEM. In agreement with previously published data soluble fractions of untreated aggregation reactions contained large numbers of predominantly spherical Aβ42 oligomers with a diameter of 5-15 nm (Fig. 3e). […] In the presence of 04 a relatively large number of long amyloid fibrils was detected in insoluble fractions, while such structures were not observed in the absence of the chemical compound. However, in pellet fractions of untreated aggregation reactions smaller protofibrillar aggregate species were detected by TEM (Fig. 3e).
Analysis of amyloid fibrils by TEM and AFM also support the antibody binding results. While untreated Aβ42 aggregates in agreement with previously published studies (Bieschke, 2005) are straight fibrils and show a plain, highly regular surface, such a fibrillar morphology was not detected with 04 treated samples (Fig. 7e and f).

[2] = target: T1, Aβ42; experiment: Circular dichroism (CD) spectroscopy of Aβ42 β-sheet formation; assay type: biochemical; conditions: Aβ42 15 µM, phosphate buffer
Source text: Therefore, we investigated whether 04 treatment influences the structure of Aβ42 amyloid fibrils using circular dichroism (CD) spectroscopy (Ehrnhoefer, 2008).
Next, the conversion of unstructured Aβ42 monomers into β-sheet-rich early aggregates was investigated. The change in CD signal at 218 nm over the course of 3,000 s was monitored for 04-treated and untreated Aβ42 peptides.
A monoexponential data fit yielded a time constant of τ = 150 ± 40 s for O4-treated samples, while a time constant of τ = 350 ± 30 s was obtained for untreated samples.

[3] = target: T1, Aβ42; experiment: SDS-PAGE (silver staining / immunoblotting) of Aβ42 aggregation products; assay type: biochemical
Experimental: 2.2.3. O4 promotes the formation of SDS-stable, protease-resistant protein aggregates. To investigate whether 04 treatment influences the stability of amyloid structures, we analyzed compound-treated Aβ42 aggregation reactions after 48 h with SDS-PAGE and silver staining (Fig. 3a). In the absence of 04, aggregation products resolved to monomers (-4 kDa), small oligomers (-10-12 and 14-16 kDa), medium-size oligomers (-100-150 kDa) and large aggregates (>250 kDa) in SDS gels, supporting previously published studies that Aβ42 monomers in vitro assemble into a heterogenous mixture of low and high molecular weight aggregate species (Bitan, 2003). However, in the presence of 04 an altered distribution of SDS-stable Aβ42 aggregate species was observed.
The effect of 04 on early aggregate species was also visible when treated and untreated Aβ42 preparations containing mainly small oligomers and protofibrils were analyzed after 24 h by SDS-PAGE and immunoblotting.
To investigate whether 04 treatment influences Aβ42 aggregate formation cell culture media were also analyzed by SDS-PAGE and silver staining (Fig. 9b). In-untreated samples, a relatively large amount of Aβ42 monomers (-4 kDa) and small oligomers (-12 kDa) was detected, while in 04 treated samples the concentration of these Aβ42 species was diminished.

[4] = target: T2, Aβ42 peptides (Homo sapiens, UniProt P05067); experiment: Binding to Aβ42 10-mer peptide array and short peptides; conditions: dot blot, colorimetric, n = 4
T2 construct: made in house; spotted short peptides
Experimental: (§1) 2.2.5. 04 binds preferentially to hydrophobic regions in Aβ42 peptides. To define potential 04 binding regions in Aβ42 peptides an array of 33 synthetic peptides representing the complete Aβ42 sequence was prepared (Beutling, 2008) and probed for an interaction with the chemical compound. Each synthetic peptide was composed of 10 amino acids, which overlapped in sequence with the next peptide by 9 residues.
(§2) We next investigated whether the position of hydrophobic amino acids in the Aβ42 peptide sequence influences 04 binding. Two short peptides containing aromatic residues were synthesized (A: KLVFFAE, aa 16-22 of Aβ42 and B: EFAVFLK, a scrambled version of A) and 04 binding was quantified colorimetrically.

[5] = tested on: Aβ42 peptides; experiment: as above; conditions: 04 300 µM, 33 peptides overlapping by 9 residues, colorimetric
Experimental: as §1, §2

[6] = tested on: primary cortical neurons; experiment: Aβ42 toxicity in primary cortical neurons; assay type: cell-based; conditions: after addition of 04 to neuronal cultures

T1 sequence (P05067 672-713 limits assumed): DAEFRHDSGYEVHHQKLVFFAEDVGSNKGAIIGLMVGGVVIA

number of oligomeric structures ([1]; Aβ42 15 µM, 04 150 µM, after 48 h, p < 1*10^-4): reduced
number of long amyloid fibrils ([1]; Aβ42 15 µM, 04 150 µM, after 48 h, untreated control 1.3%, p < 1*10^-5): 27%
length of amyloid fibrils ([1]; Aβ42 15 µM, 04 150 µM, incubation 4 d, untreated: protofibrils ∼30-150 nm): > 500 nm
spherical Aβ42 oligomers in soluble fractions (TEM) ([1]; Aβ42 100 µM, 04 10-fold molar excess, 24 h at 6-8°C in F12 medium): only very rarely detected
time constant τ of β-sheet formation (ellipticity at 218 nm) ([2]; 04 75 µM, 37°C, monoexponential decay fit, control 350 ± 30 nm): 150 ± 40 s
time constant τ of β-sheet formation (CD signal at 218 nm) ([2]; 04 75 µM, 37°C, monoexponential fit, untreated 350 ± 30 s): 150 ± 40 s
Aβ42 monomers and small oligomers in cell culture media (SDS-PAGE, silver staining) ([3]; SH-SY5Y culture media, Aβ42 5 µM, 04 5 µM or 25 µM, 48 h): diminished
SMILES: O=c1cc2oc3cc(O)c(-c4ccc(O)cc4O)cc3nc-2cc1-c1ccc(O)cc1O [Compound 04, 2,8-bis-(2,4-dihydroxyphenyl)-7-hydroxy-phenoxazin-3-one]
morphology of amyloid fibrils (TEM and AFM) ([1]; Aβ42 15 µM, 04 75 µM, 4 d non-agitated, 37°C): mostly bent amyloid fibrils with a rough, irregular surface
CD spectra of Aβ42 fibrils ([2]; equimolar 04, 37°C): CD spectra characteristic of β-sheet-rich amyloid structures
distribution of SDS-stable Aβ42 aggregate species (SDS-PAGE, silver staining) ([3]; Aβ42 15 µM, 04 1.5-150 µM, 48 h, 37°C, cell-free): the relative amount of medium-size, SDS-stable oligomers and large aggregates was increased, while the amount of monomers and small oligomers was decreased
assembly of higher molecular weight Aβ42 aggregates (SDS-PAGE, immunoblotting) ([3]; preformed Aβ42 oligomers 110 µM, 04 30, 100 and 300 µM, 24 h): stimulates the assembly of SDS-stable, higher molecular weight Aβ42 aggregates in a concentration-dependent manner
binding to peptide A (KLVFFAE, aa 16-22) and scrambled peptide B (EFAVFLK) [4]: readily interacts with peptide A but not with the control peptide B
binding to 10-mer peptide array of the Aβ42 sequence [5]: most strongly interacts with Aβ42 peptides, which contain non-polar, hydrophobic amino acids
Aβ42-mediated cellular toxicity [6]: significantly reduced
